Each structure is given as a SMILES string. pIC50: −log10 of the molar value.

Sequence of Wee1-like protein kinase (P30291 whole entry): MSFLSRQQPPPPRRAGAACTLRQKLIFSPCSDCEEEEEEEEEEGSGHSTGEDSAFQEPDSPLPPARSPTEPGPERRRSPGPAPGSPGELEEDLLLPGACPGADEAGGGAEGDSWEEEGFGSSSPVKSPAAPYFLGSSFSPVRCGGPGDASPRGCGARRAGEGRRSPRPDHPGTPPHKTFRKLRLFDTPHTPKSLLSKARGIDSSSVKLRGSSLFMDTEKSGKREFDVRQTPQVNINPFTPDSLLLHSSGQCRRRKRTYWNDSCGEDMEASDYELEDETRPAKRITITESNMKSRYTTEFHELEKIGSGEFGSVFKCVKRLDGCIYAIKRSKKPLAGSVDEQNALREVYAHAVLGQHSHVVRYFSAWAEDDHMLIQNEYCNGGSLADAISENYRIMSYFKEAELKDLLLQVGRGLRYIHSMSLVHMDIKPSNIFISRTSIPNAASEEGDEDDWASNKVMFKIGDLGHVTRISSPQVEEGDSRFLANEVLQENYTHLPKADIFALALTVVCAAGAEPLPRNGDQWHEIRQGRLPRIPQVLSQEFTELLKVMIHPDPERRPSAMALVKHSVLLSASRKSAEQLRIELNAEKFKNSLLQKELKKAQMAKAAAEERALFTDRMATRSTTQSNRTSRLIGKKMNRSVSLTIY

The subject of the first series is MV4-11. In words: Antiproliferative activity against human MV4-11 cells incubated for 72 hrs by Celltiter-glo assay. Type of series: functional, cell-based. To be noted: MV4-11, 72 h.
As usually defined, the pIC50 is the negative decadic logarithm of the IC50, by convention in mol/L. `CN(C)CCN(C)c1ccc(Nc2cc3ncn(-c4c(Cl)cccc4Cl)c(=O)c3cn2)cc1`: the pIC50 is 6.18. For the molecule `C=CCn1c(=O)c2cnc(Nc3ccc(N4CCN(C)CC4)cc3)nc2n1-c1cccc(C(C)(C)O)n1` [ADAVOSERTIB], the pIC50 was 7.02. For the molecule `CN1CCN(c2ccc(Nc3cc4ncn(-c5c(Cl)cccc5Cl)c(=O)c4cn3)nc2)CC1`, the pIC50 is 5.97. Same read-out and setting: to `NC1CCN(c2ccc(Nc3cc4ncn(-c5c(Cl)cccc5Cl)c(=O)c4cn3)cc2)CC1` belongs 5.57; to `CN1CCC(Nc2ccc(Nc3cc4ncn(-c5c(Cl)cccc5Cl)c(=O)c4cn3)cc2)CC1`, 5.75; to `CN(C)CCOc1ccc(Nc2cc3ncn(-c4c(Cl)cccc4Cl)c(=O)c3cn2)cc1`, 5.91. On to `O=c1c2cnc(Nc3ccc(NC4CCNCC4)cc3)cc2ncn1-c1c(Cl)cccc1Cl`, for which the pIC50 is 5.61. The molecule `N[C@H]1CCCN(c2ccc(Nc3cc4ncn(-c5c(Cl)cccc5Cl)c(=O)c4cn3)cc2)C1` had a pIC50 of 5.84. As to `C[C@@H]1CN(c2ccc(Nc3cc4ncn(-c5c(Cl)cccc5Cl)c(=O)c4cn3)cc2)C[C@H](C)N1`, the pIC50 was 5.57. In turn, `N[C@H]1CCN(c2ccc(Nc3cc4ncn(-c5c(Cl)cccc5Cl)c(=O)c4cn3)cc2)C1` showed a pIC50 of 5.99.

As for `C[C@@H]1CN(c2ccc(Nc3cc4ncn(-c5c(Cl)cccc5Cl)c(=O)c4cn3)nc2)C[C@H](C)N1`, the negative-log IC50 (pIC50) is 5.94. Molecule `CN1CCN(c2ccc(Nc3cc4ncn(-c5c(Cl)cccc5Cl)c(=O)c4cn3)cc2)CC1` showed a pIC50 of 5.88. `C[C@@H]1CN(c2ccc(Nc3cc4ncn(-c5c(Cl)cccc5Cl)c(=O)c4cn3)cc2CO)C[C@H](C)N1`: the pIC50 was 6.10. In turn, `O=c1c2cnc(Nc3ccc(N4CCNCC4)cc3)cc2ncn1-c1c(Cl)cccc1Cl` gave a pIC50 of 6.06.

As to `O=c1c2cnc(Nc3ccc(N4CCN(CCO)CC4)cc3)cc2ncn1-c1c(Cl)cccc1Cl`, the pIC50 is 5.69. `CN(C)CCCNc1ccc(Nc2cc3ncn(-c4c(Cl)cccc4Cl)c(=O)c3cn2)cc1`: the pIC50 is 6.06.

Test system in another series: not listed separately
In words: Metabolic stability in mouse liver microsomes assessed as parent compound remaining preincubated with NADPH for 5 mins followed by compound addition and measured upto 90 mins by LC-MS/MS analysis. Type of series: ADME, Microsome. As to conditions: read-out: Stability. For orientation: Microsomes from liver hold many membrane-bound enzymes, among them those of drug oxidation.
On to `CN(C)CCN(C)c1ccc(Nc2cc3ncn(-c4c(Cl)cccc4Cl)c(=O)c3cn2)cc1`, for which the remaining at 1.5 h is 60%.

As for `C[C@@H]1CN(c2ccc(Nc3cc4ncn(-c5c(Cl)cccc5Cl)c(=O)c4cn3)cc2CO)C[C@H](C)N1`, the remaining at 1.5 h is greater than 50%. The same measure, in the same setting: to `O=c1c2cnc(Nc3ccc(N4CCNCC4)cc3)cc2ncn1-c1c(Cl)cccc1Cl` belongs greater than 50%. Regarding `CN(C)CCCNc1ccc(Nc2cc3ncn(-c4c(Cl)cccc4Cl)c(=O)c3cn2)cc1`, the remaining at 1.5 h worked out at 22%.

A further series has as its system T47D. In words: Antiproliferative activity against human T47D cells incubated for 72 hrs by Celltiter-glo assay. It is filed as functional, cell-based.
Settings: not given
`CN(C)CCN(C)c1ccc(Nc2cc3ncn(-c4c(Cl)cccc4Cl)c(=O)c3cn2)cc1` had a pIC50 of 5.02. `C=CCn1c(=O)c2cnc(Nc3ccc(N4CCN(C)CC4)cc3)nc2n1-c1cccc(C(C)(C)O)n1` [ADAVOSERTIB] had a pIC50 of 4.89. For the molecule `CN1CCN(c2ccc(Nc3cc4ncn(-c5c(Cl)cccc5Cl)c(=O)c4cn3)nc2)CC1`, the pIC50 was 5.19. The molecule `NC1CCN(c2ccc(Nc3cc4ncn(-c5c(Cl)cccc5Cl)c(=O)c4cn3)cc2)CC1` gave a pIC50 of 4.73. Still for that read-out and setting: to `CN1CCC(Nc2ccc(Nc3cc4ncn(-c5c(Cl)cccc5Cl)c(=O)c4cn3)cc2)CC1` belongs 4.72; to `CN(C)CCOc1ccc(Nc2cc3ncn(-c4c(Cl)cccc4Cl)c(=O)c3cn2)cc1`, 4.98. Molecule `O=c1c2cnc(Nc3ccc(NC4CCNCC4)cc3)cc2ncn1-c1c(Cl)cccc1Cl` showed a pIC50 of less than 4.70.

Molecule `N[C@H]1CCCN(c2ccc(Nc3cc4ncn(-c5c(Cl)cccc5Cl)c(=O)c4cn3)cc2)C1` had a pIC50 of 5.33. `C[C@@H]1CN(c2ccc(Nc3cc4ncn(-c5c(Cl)cccc5Cl)c(=O)c4cn3)cc2)C[C@H](C)N1` had a pIC50 of 5.38. For the molecule `N[C@H]1CCN(c2ccc(Nc3cc4ncn(-c5c(Cl)cccc5Cl)c(=O)c4cn3)cc2)C1`, the pIC50 is 5.30. Take `C[C@@H]1CN(c2ccc(Nc3cc4ncn(-c5c(Cl)cccc5Cl)c(=O)c4cn3)nc2)C[C@H](C)N1`: the pIC50 is 5.57. Take `CN1CCN(c2ccc(Nc3cc4ncn(-c5c(Cl)cccc5Cl)c(=O)c4cn3)cc2)CC1`: the negative-log IC50 (pIC50) was 4.84. As to `C[C@@H]1CN(c2ccc(Nc3cc4ncn(-c5c(Cl)cccc5Cl)c(=O)c4cn3)cc2CO)C[C@H](C)N1`, the pIC50 was 5.49. In turn, `O=c1c2cnc(Nc3ccc(N4CCNCC4)cc3)cc2ncn1-c1c(Cl)cccc1Cl` had a pIC50 of 5.37.

In turn, `O=c1c2cnc(Nc3ccc(N4CCN(CCO)CC4)cc3)cc2ncn1-c1c(Cl)cccc1Cl` showed a negative-log IC50 (pIC50) of 4.86. With `CN(C)CCCNc1ccc(Nc2cc3ncn(-c4c(Cl)cccc4Cl)c(=O)c3cn2)cc1`, the pIC50 is 4.86.

The next series addresses Wee1-like protein kinase (Homo sapiens, UniProt P30291). In words: Inhibition of recombinant human Wee1 (214 to end residues) incubated for 1 hr in presence of tracer 178 by fluorescence based assay.
Settings: not given
As to `CN(C)CCN(C)c1ccc(Nc2cc3ncn(-c4c(Cl)cccc4Cl)c(=O)c3cn2)cc1`, the pIC50 was 7.15. With `CN1CCN(c2ccc(Nc3cc4ncn(-c5c(Cl)cccc5Cl)c(=O)c4cn3)nc2)CC1`, the pIC50 is 7.74.

`N[C@@H]1CCCN(c2ccc(Nc3cc4ncn(-c5c(Cl)cccc5Cl)c(=O)c4cn3)cc2)C1`: the pIC50 was 7.44. On to `NC1CCN(c2ccc(Nc3cc4ncn(-c5c(Cl)cccc5Cl)c(=O)c4cn3)cc2)CC1`, for which the pIC50 was 7.19. As for `CN1CCC(Nc2ccc(Nc3cc4ncn(-c5c(Cl)cccc5Cl)c(=O)c4cn3)cc2)CC1`, the negative logarithm of the IC50 (pIC50) was 7.46. Take `NCC1CCN(c2ccc(Nc3cc4ncn(-c5c(Cl)cccc5Cl)c(=O)c4cn3)cc2)CC1`: the pIC50 is 7.26. With `CN1CCN(c2ccc(Nc3cc4ncn(-c5c(F)cccc5Cl)c(=O)c4cn3)cc2)CC1`, the pIC50 was 6.57. For `CN(CCCN)c1ccc(Nc2cc3ncn(-c4c(Cl)cccc4Cl)c(=O)c3cn2)cc1`, the pIC50 is 7.05. For `O=c1c2cnc(Nc3ccc(N4CCC(CO)CC4)cc3)cc2ncn1-c1c(Cl)cccc1Cl`, the pIC50 was 6.29. Turning to `CN(C)CCCN(C)c1ccc(Nc2cc3ncn(-c4c(Cl)cccc4Cl)c(=O)c3cn2)cc1`, the pIC50 is 6.85. For `CC(C)N1CCN(c2ccc(Nc3cc4ncn(-c5c(Cl)cccc5Cl)c(=O)c4cn3)cc2)CC1`, the pIC50 is 7.42. In the case of `C[C@@H]1CN(c2ccc(Nc3cc4ncn(-c5c(Cl)cccc5Cl)c(=O)c4cn3)cc2C(F)(F)F)C[C@H](C)N1`, the pIC50 was 6.72. On the same count and under the same terms, to `CN(C)CCOc1ccc(Nc2cc3ncn(-c4c(Cl)cccc4Cl)c(=O)c3cn2)cc1` belongs 7.28.

Turning to `CN(C)C1CCN(c2ccc(Nc3cc4ncn(-c5c(Cl)cccc5Cl)c(=O)c4cn3)cc2)CC1`, the pIC50 is 7.14.

In the case of `O=c1c2cnc(Nc3ccc(NC4CCNCC4)cc3)cc2ncn1-c1c(Cl)cccc1Cl`, the pIC50 is 7.11.

With `O=c1c2cnc(Nc3ccc(C4CCNCC4)cc3)cc2ncn1-c1c(Cl)cccc1Cl`, the pIC50 was 7.11. On to `Cc1cccc(Cl)c1-n1cnc2cc(Nc3ccc(N4CCN(C)CC4)cc3)ncc2c1=O`, for which the pIC50 was 7.11.

On to `CN1CCC(Oc2ccc(Nc3cc4ncn(-c5c(Cl)cccc5Cl)c(=O)c4cn3)cc2)CC1`, for which the pIC50 is 7.03. Take `N[C@H]1CCCN(c2ccc(Nc3cc4ncn(-c5c(Cl)cccc5Cl)c(=O)c4cn3)cc2)C1`: the pIC50 is 7.39. As for `CCN1CCN(c2ccc(Nc3cc4ncn(-c5c(Cl)cccc5Cl)c(=O)c4cn3)cc2)CC1`, the pIC50 was 7.07. On to `CC(=O)N1CCN(c2ccc(Nc3cc4ncn(-c5c(Cl)cccc5Cl)c(=O)c4cn3)cc2)CC1`, for which the pIC50 was 6.53. With `O=c1c2cnc(Nc3ccc(N[C@@H]4CN5CCC4CC5)cc3)cc2ncn1-c1c(Cl)cccc1Cl`, the pIC50 was 6.70. On the same count and under the same terms, to `CN1CCN(c2ccc(Nc3cc4ncn(-c5ccccc5F)c(=O)c4cn3)cc2)CC1` belongs 5.83; to `C[C@@H]1CN(c2ccc(Nc3cc4ncn(-c5c(Cl)cccc5Cl)c(=O)c4cn3)cc2)C[C@H](C)N1`, 7.72; to `N[C@H]1CCN(c2ccc(Nc3cc4ncn(-c5c(Cl)cccc5Cl)c(=O)c4cn3)cc2)C1`, 7.40. On the same count and under the same terms, to `C[C@@H]1CN(c2ccc(Nc3cc4ncn(-c5c(Cl)cccc5Cl)c(=O)c4cn3)nc2)C[C@H](C)N1` belongs 7.64; to `N[C@@H]1CCN(c2ccc(Nc3cc4ncn(-c5c(Cl)cccc5Cl)c(=O)c4cn3)cc2)C1`, 7.24; to `CN1CCN(Cc2ccc(Nc3cc4ncn(-c5c(Cl)cccc5Cl)c(=O)c4cn3)cc2)CC1`, 6.91. For `O=c1c2cnc(Nc3ccc(N4CCN(C5CC5)CC4)cc3)cc2ncn1-c1c(Cl)cccc1Cl`, the pIC50 was 7.01.

On to `CN1CCN(c2ccc(Nc3cc4ncn(-c5c(Cl)cccc5Cl)c(=O)c4cn3)cc2)CC1`, for which the pIC50 is 7.33. Take `C[C@@H]1CN(c2ccc(Nc3cc4ncn(-c5c(Cl)cccc5Cl)c(=O)c4cn3)cc2CNC2CC2)C[C@H](C)N1`: the pIC50 is 6.97.

For `O=c1c2cnc(Nc3ccc(N4CCC(O)CC4)cc3)cc2ncn1-c1c(Cl)cccc1Cl`, the pIC50 is 7.02.

As for `COc1cc(Nc2cc3ncn(-c4c(Cl)cccc4Cl)c(=O)c3cn2)ccc1N1C[C@@H](C)N[C@@H](C)C1`, the pIC50 was 7.28.

As to `C[C@@H]1CN(c2ccc(Nc3cc4ncn(-c5c(Cl)cccc5Cl)c(=O)c4cn3)cc2CO)C[C@H](C)N1`, the pIC50 is 7.64. As for `C[C@@H]1CN(c2ccc(Nc3cc4ncn(-c5c(Cl)cccc5Cl)c(=O)c4cn3)cc2C#N)C[C@H](C)N1`, the pIC50 is 6.79.

Consider `O=c1c2cnc(Nc3ccc(N4CCNCC4)cc3)cc2ncn1-c1c(Cl)cccc1Cl`, for which the pIC50 is 7.32. With `O=c1c2cnc(Nc3ccc(N4CCN(CCO)CC4)cc3)cc2ncn1-c1c(Cl)cccc1Cl`, the pIC50 was 7.37. Take `CN(C)CCCNc1ccc(Nc2cc3ncn(-c4c(Cl)cccc4Cl)c(=O)c3cn2)cc1`: the pIC50 is 7.10.

(Values after ChEMBL document CHEMBL5257125, “Discovery of pyrido[4,3-d]pyrimidinone derivatives as novel Wee1 inhibitors” (Bioorg Med Chem, 2023).)
